Data taken from ChEMBL document CHEMBL3091367, “Synthesis and evaluation of the apoptosis inducing and CT DNA interaction properties of a series of 4β-carbamoyl 4'-O-demethylepipodophyllotoxins” (Eur J Med Chem, 2013).
Calls of active or inactive are those of the source. The rule behind the calls is not given here.

What was measured:
[1] = Cytotoxicity against human HCT8 cells after 48 hrs by MTT assay; type: functional, cell-based; settings: HCT-8, 48 h
HeLa [2] = test: Cytotoxicity against human HeLa cells after 48 hrs by MTT assay; type: functional, cell-based
HL-60 = test: Cytotoxicity against human HL60 cells after 48 hrs by cell counting kit-8 assay; type: functional, cell-based; settings: HL-60, 48 h
A549 = test: Cytotoxicity against human A549 cells after 48 hrs by MTT assay; type: functional, cell-based; settings: A549, 48 h
HeLa [3] = test: Cell cycle arrest in human HeLa cells assessed as accumulation at sub-G1 phase at 10 uM by propidium iodide staining-based FACS flow cytometric analysis (reference value: 4.4%); type: functional
HeLa [4] = test: Cell cycle arrest in human HeLa cells assessed as accumulation at sub-G1 phase at 5 uM by propidium iodide staining-based FACS flow cytometric analysis (reference value: 4.4%); type: functional
HeLa [5] = test: Cell cycle arrest in human HeLa cells assessed as accumulation at G1 phase at 5 uM after 12 hrs by propidium iodide staining-based FACS flow cytometric analysis (reference value: 57.2%); type: functional
HeLa [6] = test: Cell cycle arrest in human HeLa cells assessed as accumulation at G2/M phase at 10 uM by propidium iodide staining-based FACS flow cytometric analysis (reference value: 15.0%); type: functional
HeLa [7] = test: Induction of apoptosis in human HeLa cells assessed as upregulation of Bax protein expression at 5 uM after 1 to 24 hrs by Western blotting analysis; type: functional, cell-based
HeLa [8] = test: Induction of apoptosis in human HeLa cells assessed as upregulation of caspase-3 protein expression at 5 uM after 1 to 24 hrs by Western blotting analysis; type: functional, cell-based
HeLa [9] = test: Cell cycle arrest in human HeLa cells assessed as accumulation at sub-G1 phase at 5 uM after 24 hrs by propidium iodide staining-based FACS flow cytometric analysis (reference value: 1.8%); type: functional
HeLa [10] = test: Cell cycle arrest in human HeLa cells assessed as accumulation at sub-G1 phase at 5 uM after 12 hrs by propidium iodide staining-based FACS flow cytometric analysis (reference value: 1.8%); type: functional
HeLa [11] = test: Cell cycle arrest in human HeLa cells assessed as accumulation at G2/M phase at 0.5 uM by propidium iodide staining-based FACS flow cytometric analysis (reference value: 15.0%); type: functional
HeLa [12] = test: Cell cycle arrest in human HeLa cells assessed as accumulation at G1 phase at 5 uM by propidium iodide staining-based FACS flow cytometric analysis (reference value: 54.7%); type: functional
HeLa [13] = test: Cell cycle arrest in human HeLa cells assessed as accumulation at G1 phase at 0.5 uM by propidium iodide staining-based FACS flow cytometric analysis (reference value: 54.7%); type: functional
HeLa [14] = test: Cell cycle arrest in human HeLa cells assessed as accumulation at sub-G1 phase at 0.5 uM by propidium iodide staining-based FACS flow cytometric analysis (reference value: 4.4%); type: functional
HeLa [15] = test: Cell cycle arrest in human HeLa cells assessed as accumulation at S phase at 0.5 uM by propidium iodide staining-based FACS flow cytometric analysis (reference value: 16.3%); type: functional
HeLa [16] = test: Cell cycle arrest in human HeLa cells assessed as accumulation at S phase at 5 uM by propidium iodide staining-based FACS flow cytometric analysis (reference value: 16.3%); type: functional
DNA [17] = test: Binding affinity to calf thymus DNA assessed as change in DNA conformation from B-form to C-form at 5 to 40 ug/ml after 24 hrs by circular dichorism spectroscopy; type: nucleic-acid assay; settings: Bos taurus
HeLa [18] = test: Cell cycle arrest in human HeLa cells assessed as accumulation at G2/M phase at 5 uM after 24 hrs by propidium iodide staining-based FACS flow cytometric analysis (reference value: 22.7%); type: functional
HeLa [19] = test: Cell cycle arrest in human HeLa cells assessed as accumulation at sub-G1 phase by propidium iodide staining-based FACS flow cytometric analysis; type: functional
HeLa [20] = test: Induction of apoptosis in human HeLa cells assessed as upregulation of p53 protein expression at 5 uM by Western blotting analysis; type: functional, cell-based; settings: TDE = time-dependent effect
HeLa [21] = test: Induction of apoptosis in human HeLa cells assessed as upregulation of caspase-3 protein expression at 5 uM by Western blotting analysis; type: functional, cell-based; settings: TDE = time-dependent effect
HeLa [22] = test: Cell cycle arrest in human HeLa cells assessed as accumulation at S phase at 5 uM after 12 hrs by propidium iodide staining-based FACS flow cytometric analysis (reference value: 9.0%); type: functional
DNA [23] = test: Binding affinity to calf thymus DNA assessed as increase in complex fluorescence using 1 to 6 uM of DNA at 1 uM after 5 mins by fluorescence assay; type: nucleic-acid assay; settings: Bos taurus
HeLa [24] = test: Cell cycle arrest in human HeLa cells assessed as accumulation at G2/M phase at 5 uM after 12 hrs by propidium iodide staining-based FACS flow cytometric analysis (reference value: 22.7%); type: functional
HeLa [25] = test: Cell cycle arrest in human HeLa cells assessed as accumulation at G1 phase at 10 uM by propidium iodide staining-based FACS flow cytometric analysis (reference value: 54.7%); type: functional
HeLa [26] = test: Cell cycle arrest in human HeLa cells assessed as accumulation at G2/M phase at 5 uM by propidium iodide staining-based FACS flow cytometric analysis (reference value: 15.0%); type: functional
HeLa [27] = test: Cell cycle arrest in human HeLa cells assessed as accumulation at S phase at 5 uM after 24 hrs by propidium iodide staining-based FACS flow cytometric analysis (reference value: 9.0%); type: functional
HeLa [28] = test: Cell cycle arrest in human HeLa cells assessed as accumulation at G1 phase at 5 uM after 24 hrs by propidium iodide staining-based FACS flow cytometric analysis (reference value: 57.2%); type: functional
HeLa [29] = test: Cell cycle arrest in human HeLa cells assessed as accumulation at S phase at 10 uM by propidium iodide staining-based FACS flow cytometric analysis (reference value: 16.3%); type: functional
HeLa [30] = test: Induction of apoptosis in human HeLa cells assessed as upregulation of Bax protein expression at 5 uM by Western blotting analysis; type: functional, cell-based; settings: TDE = time-dependent effect
HeLa [31] = test: Induction of apoptosis in human HeLa cells assessed as upregulation of p53 protein expression at 5 uM after 1 to 24 hrs by Western blotting analysis; type: functional, cell-based

Work on COc1cc([C@@H]2c3cc4c(cc3[C@@H](OC(=O)N3CCN(c5ccc(F)cc5)CC3)[C@H]3COC(=O)[C@H]23)OCO4)cc(OC)c1O yielded an IC50 [1] of 10 nM, an IC50 (HeLa [2]) of 1580 nM and an IC50 (HL-60) of 330 nM. For the same molecule, the IC50 (A549) was 5240 nM.
With COc1cc([C@@H]2c3cc4c(cc3[C@@H](OC(=O)N[C@H](Cc3ccccc3)C(=O)N3CCN(c5ccc([N+](=O)[O-])cc5)CC3)[C@H]3COC(=O)[C@H]23)OCO4)cc(OC)c1O the IC50 [1] was 70 nM, the IC50 (HeLa [2]) was 28600 nM and the IC50 (HL-60) was 40 nM. For the same molecule, the IC50 (A549) was > 100000 nM.
Work on COc1cc([C@@H]2c3cc4c(cc3[C@@H](OC(=O)N[C@@H](CCSC)C(=O)N3CCN(c5ccc([N+](=O)[O-])cc5)CC3)[C@H]3COC(=O)[C@H]23)OCO4)cc(OC)c1O yielded an IC50 [1] of 570 nM, an IC50 (HeLa [2]) of 49400 nM and an IC50 (HL-60) of 10 nM. For the same molecule, the IC50 (A549) was > 100000 nM.
With CCCNC(=O)O[C@@H]1c2cc3c(cc2[C@@H](c2cc(OC)c(O)c(OC)c2)[C@H]2C(=O)OC[C@@H]21)OCO3 the IC50 [1] was 185 nM, the IC50 (HeLa [2]) was 13200 nM and the IC50 (HL-60) was 90 nM. For the same molecule, the IC50 (A549) was 8830 nM.
Work on COc1cc([C@@H]2c3cc4c(cc3[C@@H](OC(=O)N[C@@H](Cc3ccccc3)C(=O)N3CCN(c5ccc([N+](=O)[O-])cc5)CC3)[C@H]3COC(=O)[C@H]23)OCO4)cc(OC)c1O yielded an IC50 [1] of 10 nM, an IC50 (HeLa [2]) of 4130 nM and an IC50 (HL-60) of 30 nM. The IC50 (A549) was 9550 nM.
For COc1cc([C@@H]2c3cc4c(cc3[C@@H](OC(=O)N[C@H](C(=O)N3CCN(c5ccc([N+](=O)[O-])cc5)CC3)C(C)C)[C@H]3COC(=O)[C@H]23)OCO4)cc(OC)c1O, the IC50 [1] was 10 nM, the IC50 (HeLa [2]) was > 100000 nM and the IC50 (HL-60) was 260 nM. The IC50 (A549) was 8320 nM.
In the case of COc1cc([C@@H]2c3cc4c(cc3[C@@H](OC(=O)N3CCOCC3)[C@H]3COC(=O)[C@H]23)OCO4)cc(OC)c1OC(=O)N1CCOCC1, the IC50 [1] is reported as 130 nM, the IC50 (HeLa [2]) is reported as > 100000 nM and the IC50 (HL-60) is reported as < 10 nM. The IC50 (A549) was > 100000 nM.
With COc1cc([C@@H]2c3cc4c(cc3[C@@H](OC(=O)N3CCN(c5ccc([N+](=O)[O-])cc5)CC3)[C@H]3COC(=O)[C@H]23)OCO4)cc(OC)c1O the Activity (HeLa [3]) was 24.7%, the IC50 [1] was < 10 nM and the Activity (HeLa [4]) was 23%. For the same molecule, the Activity (HeLa [5]) was 43.8%, the Activity (HeLa [6]) was 29.1% and the IC50 (HeLa [2]) was 74 nM. The Activity (HeLa [7]) was “Active”, the Activity (HeLa [8]) was “Active” and the Activity (HeLa [9]) was 11.1%. It also gave an IC50 (HL-60) of 170 nM, an Activity (HeLa [10]) of 4.1% and an IC50 (A549) of 1670 nM. For the same molecule, the Activity (HeLa [11]) was 20.5%, the Activity (HeLa [12]) was 33.9% and the Activity (HeLa [13]) was 35.9%. For the same molecule, the Activity (HeLa [14]) was 21.7%, the Activity (HeLa [15]) was 9.8% and the Activity (HeLa [16]) was 10.2%. The Activity (DNA [17]) was “Active”, the Activity (HeLa [18]) was 38.1% and the Activity (HeLa [19]) was “Dose-dependent effect”. The Activity (HeLa [20]) was “tde”, the Activity (HeLa [21]) was “tde” and the Activity (HeLa [22]) was 10.2%. For the same molecule, the Activity (DNA [23]) was “Active”, the Activity (HeLa [24]) was 29.9% and the Activity (HeLa [25]) was 26%. It also gave an Activity (HeLa [26]) of 22.5%, an Activity (HeLa [27]) of 10.2% and an Activity (HeLa [28]) of 33.3%. For the same molecule, the Activity (HeLa [29]) was 13.1%, the Activity (HeLa [30]) was “tde” and the Activity (HeLa [31]) was “Active”.
COc1cc([C@@H]2c3cc4c(cc3[C@@H](OC(=O)N3CCN(C)CC3)[C@H]3COC(=O)[C@H]23)OCO4)cc(OC)c1O gave an IC50 [1] of 30 nM, an IC50 (HeLa [2]) of 20000 nM and an IC50 (HL-60) of 190 nM. The IC50 (A549) was 4180 nM.
